The values that follow come from publication PMC11448502, “Cryo-EM structures of the human P2X1 receptor reveal subtype-specific architecture and antagonism by supramolecular ligand-binding” (Nature Communications, 2024).

SMILES strings stand for the structures. Residue numbers refer to the chain shown, from its start. Values joined by “and” are separate entries in the source; they are usually repeats but may differ in a detail not shown here. Identical values can stand only once. “Also recorded” adds a separate entry of the source.

Test [1] concerns P2X1. More on the design: method as in doi: 10.1111/bph.15299. The note with it: reviewer comment, ref doi: 10.1111/bph.15299, read-out: EC50 of ATP; cited from earlier work.
In test [2] the target is T1, hP2X1 WT (Homo sapiens, UniProt P51575).
T1 construct: hP2X1 mRNA that was made from linearized full-length wild-type or mutant pcDNA 3.1x; expressed in transfected cells; host or cells: Xenopus laevis oocytes (mRNA injection)
T1 sequence (P51575 1-399): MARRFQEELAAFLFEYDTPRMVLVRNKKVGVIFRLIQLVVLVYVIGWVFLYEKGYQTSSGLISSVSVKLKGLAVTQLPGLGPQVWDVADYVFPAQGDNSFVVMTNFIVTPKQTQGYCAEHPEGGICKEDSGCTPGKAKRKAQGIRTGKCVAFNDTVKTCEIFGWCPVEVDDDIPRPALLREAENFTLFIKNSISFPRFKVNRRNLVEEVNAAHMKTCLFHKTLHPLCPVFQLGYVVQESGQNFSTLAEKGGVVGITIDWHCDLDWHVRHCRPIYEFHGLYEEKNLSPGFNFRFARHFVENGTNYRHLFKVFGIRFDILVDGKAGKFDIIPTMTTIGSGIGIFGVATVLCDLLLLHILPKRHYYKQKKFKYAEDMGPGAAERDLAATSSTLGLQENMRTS
Briefly: ATP dose response (EC50), TEVC in oocytes. The test is classed as cell-based. The protocol:
(§1) Oocytes were purchased defolliculated from Ecocyte Bioscience in Barth’s Solution (88 mM NaCl, 1 mM KCl, 0.82 mM MgSO4, 0.33 mM Ca(NO3)2, 0.41 mM CaCl2, 2.4 mM NaHCO3, 5 mM Tris-HCl) supplemented with penicillin (100 U/mL) and streptomycin (100 µg/mL). Xenopus laevis oocytes were then injected with 50 nL of 100 ng/μL hP2X1 mRNA that was made from linearized full-length wild-type or mutant pcDNA 3.1x according to the protocol provided in the mMessage mMachine kit (Invitrogen). Injected oocytes were allowed to express for ~20 hours at 18 °C before recording was performed.
(§2) Data acquisition was performed using the Oocyte Clamp OC-725C amplifier and pClamp 8.2 software. Buffers were applied using a gravity fed RSC-200 Rapid Solution Changer that flows at ~5 mL/min. All experiments use Sutter filamented glass 10 cm in length with an inner diameter of 0.69 mm and an outer diameter of 1.2 mm to impale oocytes and clamp the holding voltage at −60 mV. Experiments were recorded in buffer containing 10 mM HEPES (pH 7.4), 140 mM NaCl, 5 mM KCl, 2 mM CaCl2, 2 mM MgCl2, and 10 mM glucose.
(§3) Excitatory responses to a dilution series of ATP between 6.4 nM and 10 mM were examined across the different mutants. Each evoked response was normalized to an initial ATP-induced current evoked by the following concentrations: 500 µM ATP for R292A, 2 mM ATP for K309A, and 100 µM ATP for the remaining mutants and wild-type receptor. The data was fit in Prism 9 using the nonlinear regression named “EC50, x is concentration” to afford EC50 values. This value was then averaged amongst each singular condition and reported as an average plus or minus the standard deviation.

Test [3] has as its target T2, hP2X1 K140A (Homo sapiens, UniProt P51575, K140A).
T2 construct: hP2X1 mRNA that was made from linearized full-length wild-type or mutant pcDNA 3.1x; expressed in transfected cells; host or cells: Xenopus laevis oocytes (mRNA injection)
T2 sequence (P51575 1-399 K140A): T1 sequence (P51575 1-399) with K140A
Briefly: ATP dose response (EC50), TEVC in oocytes. The test is classed as cell-based. The note with it: for Normalized Current: hP2X1 K140A. As to the method:
as §1, §2, §3

The target in test [4] is T3, hP2X1 R139A (Homo sapiens, UniProt P51575, R139A).
T3 construct: hP2X1 mRNA that was made from linearized full-length wild-type or mutant pcDNA 3.1x; expressed in transfected cells; host or cells: Xenopus laevis oocytes (mRNA injection)
T3 sequence (P51575 1-399 R139A): T1 sequence (P51575 1-399) with R139A
The test is described as follows: NF449 inhibition dose response (IC50), TEVC in oocytes. The test is classed as cell-based. The protocol:
as §1, §2
To test a dilution series of an antagonist at discrete concentrations, 10 µM ATP (2 mM ATP for K309A only) was first applied to evoke an initial maximum current. The oocyte was then washed with buffer for one minute, followed by one minute application of an antagonist test-concentration, and concluded by co-application of the same test concentration with 10 µM ATP (2 mM ATP for K309A). The antagonized signal was then normalized against the initial ATP excitatory signal. Each test concentration was performed in triplicate across different oocytes. The data was then fit to a nonlinear regression named “[inhibitor] vs. response – Variable slope (four parameters)” in Prism 9 to produce a sigmoidal curve and afford an IC50 value. Each singular condition was used to generate an average which is reported plus or minus its standard deviation between three discrete trials.

The test system of test [5] is P2X1. The arrangement: method as in doi.org/10.1074/jbc.M114.592246. The following applies: reviewer comment; ref doi.org/10.1074/jbc.M114.592246; cited from earlier work.

The term EC50 denotes the concentration giving half of the maximal effect. `Nc1ncnc2c1ncn2[C@@H]1O[C@H](COP(=O)(O)OP(=O)(O)OP(=O)(O)O)[C@@H](O)[C@H]1O` [ATP]: the 50% effective concentration (EC50) in test [1] is 0.5 to 1 µM; in test [2] (TEVC, Xenopus laevis oocytes, mean ± SD, triplicate, read-out: apparent affinity (EC50) of ATP), 1.7 ± 0.3 µM. The “Normalized Current” value in test [2] ([ATP] 1.000E-04 M) is 1.041 and 0.9705 and 0.9151; in test [2] ([ATP] 1.600E-07 M) it was 0.08801 and 0.07128 and 0.05984; in test [2] ([ATP] 4.000E-06 M), 0.7387 and 0.5911 and 0.5682; in test [2] ([ATP] 5.000E-04 M), 1.055 and 1.025 and 0.9207; in test [2] ([ATP] 8.000E-07 M) it was 0.4523 and 0.3946 and 0.3316; in test [3] ([ATP] 1.000E-04 M), 1.047 and 0.9489 and 0.9169. Further, the “Normalized Current” value in test [3] ([ATP] 4.000E-06 M) was 0.661 and 0.6317 and 0.5508; in test [3] ([ATP] 5.000E-04 M) it was 1.045 and 0.9875 and 0.9677. Further, the “Hill slope of activation by ATP” value in test [2] (mean ± SD of three EC50 traces) came to 0.9 ± 0.2. Moreover, in test [3] (hP2X1 K140A vs wild-type, TEVC), the “apparent affinity (EC50) of ATP, effect of mutation” value is listed as “do not appear to significantly change; also recorded: no major effect; also recorded: did not impact”.
As for `O=C(Nc1cc(C(=O)Nc2ccc(S(=O)(=O)O)cc2S(=O)(=O)O)cc(C(=O)Nc2ccc(S(=O)(=O)O)cc2S(=O)(=O)O)c1)Nc1cc(C(=O)Nc2ccc(S(=O)(=O)O)cc2S(=O)(=O)O)cc(C(=O)Nc2ccc(S(=O)(=O)O)cc2S(=O)(=O)O)c1` [NF449, 4,4’,4”,4’’’-(carbonylbis(imino-5,1,3-benzenetriylbis(carbonylimino)))tetrakis-benzene-1,3-disulfonic acid], the “Normalized Current” value was 0.9525 and 0.8503 and 0.8408 in test [4] ([NF449] 1.600E-09 M); 0.2675 and 0.1529 in test [4] ([NF449] 2.000E-07 M); 1.089 and 0.9841 and 0.9268 in test [4] ([NF449] 3.200E-10 M); 0.6975 and 0.6688 and 0.5159 in test [4] ([NF449] 4.000E-08 M); 0.000000 in test [4] ([NF449] 5.000E-06 M); 0.8121 and 0.8025 and 0.7834 in test [4] ([NF449] 8.000E-09 M). Moreover, the Hill coefficient in test [5] was ~ 1.4.
